Test results published in patent publication US5244892A, “Cephem compounds, and antibacterial agents” (Kyorin Pharmaceutical Co., Ltd., priority 1990, dated 1993).
In brackets after ≈: the same amount, converted by molar mass. Like-named read-outs stand apart in the source and are kept apart here.

Key:
Assay in all cases: in vitro antibacterial activity (minimum inhibitory concentration), standard method of the Japan Chemotherapy Society
Format in all cases: cell-based
[1] = test system: Streptococcus pneumoniae Type III; details: read-out: Minimum inhibitory concentration for growth
[2] = test system: Klebsiella pneumoniae 1-220 S; details: 1220S, read-out: Minimum inhibitory concentration for growth
[3] = test system: Pseudomonas aeruginosa IFO 12689
[4] = test system: S. epidermidis IID 866; details: Staphylococcus epidermidis
[5] = test system: Escherichia coli ATCC 10536; details: ATCC10536, Gram (-), 10^6 cells/ml, read-out: Minimum inhibitory concentration for growth
[6] = test system: Staphylococcus aureus 209P; details: read-out: Minimum inhibitory concentration for growth
[7] = IFO12689, Gram (-), 10^6 cells/ml, read-out: Minimum inhibitory concentration for growth
[8] = IID866, Gram (+), 10^6 cells/ml, read-out: Minimum inhibitory concentration for growth

MIC [5] [µg/mL]	MIC ([1]; Gram (+), 10^6 cells/ml) [µg/mL]	MIC ([2]; Gram (-), 10^6 cells/ml) [µg/mL]	MIC [3, 7] [µg/mL]	MIC [4, 8] [µg/mL]	MIC ([6]; Gram (+), 10^6 cells/ml) [µg/mL]	Structure (SMILES)	MIC [1] [µg/mL]	MIC [2] [µg/mL]	MIC ([3]; IFO12689, read-out: Minimum inhibitory concentration for growth) [µg/mL]	MIC ([4]; IID866, read-out: Minimum inhibitory concentration for growth) [µg/mL]	MIC [6] [µg/mL]
0.025 (≈ 0.0549 µM)	0.1 (≈ 0.22 µM)	0.05 (≈ 0.11 µM)	25 (≈ 54.9 µM)	0.78 (≈ 1.71 µM)	0.78 (≈ 1.71 µM)	CO/N=C(\C(=O)N[C@@H]1C(=O)N2C(C(=O)O)=C(COC(C)=O)CS[C@H]12)c1csc(N)n1 [CTX, cefotaxime, reference compound]	–	–	–	–	–
≤ 0.0063	0.1	≤ 0.0063	0.39	0.78	0.39	CO/N=C(\C(=O)N[C@@H]1C(=O)N2C(C(=O)O)=C(CSc3cc(=O)c4cc(O)c(O)cc4s3)CS[C@H]12)c1csc(N)n1 [Example 75, Sodium 7β-[(Z)-2-(2-aminothiazole-4-yl)-2-methoxyiminoacetamido]-3-(6,7-dihydroxy-4-oxo-4H-1-benzothiopyran-2-yl) thiomethyl-3-cephem-4-carboxylate]	–	–	–	–	–
≤ 0.0063	0.1	≤ 0.0063	0.05	1.56	1.56	CO/N=C(\C(=O)N[C@@H]1C(=O)N2C(C(=O)O)=C(CSc3cc(=O)c4cc(O)c(O)cc4s3)CS[C@H]12)c1nsc(N)n1 [Example 90, Sodium 7β[(Z)-2-(5-amino-1,2,4-thiadiazole-3-yl)-2-methoxyiminoacetamido]-3-(6,7-dihydroxy-4-oxo-4H-1-benzothiopyran-2-yl) thiomethyl-3-cephem-4-carboxylate]	–	–	–	–	–
≤ 0.0063	3.13	≤ 0.0063	0.1	12.5	12.5	Nc1nc(/C(=N/OCC(=O)O)C(=O)N[C@@H]2C(=O)N3C(C(=O)O)=C(CSc4sc5cc(O)c(O)cc5c(=O)c4Br)CS[C@H]23)cs1 [Example 100, Disodium 7β-[(Z)-2-(2-aminothiazole-4-yl)-2-carboxymethoxyiminoacetamido]-3-(3-bromo-6,7-dihydroxy-4-oxo-4H-1-benzothiopyran-2-yl)thiomethyl-3-cephem-4-carboxylate]	–	–	–	–	–
≤ 0.0063	0.78	≤ 0.0063	0.05	12.5	6.25	Nc1nc(/C(=N/OCC(=O)O)C(=O)N[C@@H]2C(=O)N3C(C(=O)O)=C(CSc4cc(=O)c5cc(O)c(O)cc5s4)CS[C@H]23)cs1 [Example 108, Disodium 7β-[(Z)-2-(2-aminothiazole-4-yl)-2-carboxymethoxyiminoacetamido]-3-(6,7-dihydroxy-4-oxo-4H-1-benzothiopyran-2-yl)thiomethyl-3-cephem-4-carboxylate]	–	–	–	–	–
≤ 0.0063	0.78	≤ 0.0063	0.05	12.5	6.25	CC(C)(O/N=C(\C(=O)N[C@@H]1C(=O)N2C(C(=O)O)=C(CSc3cc(=O)c4cc(O)c(O)cc4s3)CS[C@H]12)c1csc(N)n1)C(=O)O [Example 110, Disodium 7β-[(Z)-2-(2-aminothiazole-4-yl)-2-(1-carboxy-1-methylethoxy)iminoacetamido]-3-(6,7-dihydroxy-4-oxo-4H-1-benzothiopyran-2-yl)thiomethyl-3-cephem-4-carboxylate]	–	–	–	–	–

Structure (SMILES)	MIC [5] [µg/mL]	MIC ([1]; Gram (+), 10^6 cells/ml) [µg/mL]	MIC ([2]; Gram (-), 10^6 cells/ml) [µg/mL]	MIC [3, 7] [µg/mL]	MIC [4, 8] [µg/mL]	MIC ([6]; Gram (+), 10^6 cells/ml) [µg/mL]	MIC [1] [µg/mL]	MIC [2] [µg/mL]	MIC ([3]; IFO12689, read-out: Minimum inhibitory concentration for growth) [µg/mL]	MIC ([4]; IID866, read-out: Minimum inhibitory concentration for growth) [µg/mL]	MIC [6] [µg/mL]
CC(C)(O/N=C(\C(=O)N[C@@H]1C(=O)N2C(C(=O)[O-])=C(C[n+]3ccccc3)CS[C@H]12)c1csc(N)n1)C(=O)O [CAZ, ceftazidime, reference compound]	0.05 (≈ 0.0915 µM)	–	–	–	–	–	0.39 (≈ 0.714 µM)	0.2 (≈ 0.366 µM)	3.13 (≈ 5.73 µM)	3.13 (≈ 5.73 µM)	3.13 (≈ 5.73 µM)
